According to patent US20060127914A1 (priority 1999, published 2006):

How the values were obtained:
[1] = target: T1, α9 alone (homomeric α9 nAChR) (Homo sapiens, UniProt Q9UGM1, N442S); experiment: Two electrode voltage clamp recording in Xenopus oocytes injected with α9 alone; format: cell-based
T1 construct: expressed in transfected cells; host or cells: Xenopus laevis oocytes injected with cRNA made from cDNA in pSP64T.GL+
Description: (§1) 5 minutes washout time was allowed between each response. The data is corrected for run-up or run-down and expressed as a percentage of the maximum evoked current. Curves have been fitted using the non-linear curve fitting routine of Graph Pad. The fit is constrained to a lower bound of 0 while the upper bound is unconstrained. The correlation coefficients are R^2=0.9999 and 0.9980 for α9 and α9/α10, respectively.
(§2) Xenopus laevis females were purchased from Blades Biological, UK. The animals were maintained and dissected as described in Gould (1994) Membrane Protein and Expression Systems: a User's Guide Portland Press, London. Stage V or VI oocytes were de-folliculated by incubating with 0.2% collagenase (Sigma) in calcium-free Barth's solution on a vibrating platform set at 8 Hz for 2 hours at 18° C. Oocytes were then maintained in normal Barth's solution (containing 160 IU/ml penicillin and 74 IU/ml streptomycin). On the following day oocytes were injected with 1 to 25 ng cRNA using a Drummond Nanoject and left for at least three days before recording. cRNA was synthesised from cDNAs previously subcloned into the pSP64T.GL+ vector using the SP6 Message Machine Kit (Ambion).
(§3) Two electrode voltage clamp recording was carried out using a TURBO TEC-10CD (NPI Electronic GmbH, D-71732 Tamm, Germany). For current recording oocytes were placed in ND-96 Ringer (containing 96 mM NaCl, 1.8 mM CaCl2, 2 mM KCl, 1 mM MgCl2 and 5 mM HEPES (pH=7.4)) and impaled with two electrodes filled with 3 M KCl and 1 to 2 MΩ tip resistance. Recording were made in oocytes in which the membrane potential stabilised to potentials more negative than −20 mV during a 20 minute stabilisation period.
(§4) α10 nAChR function and pharmacology was investigated in Xenopus oocytes using two electrode voltage clamp techniques.

[2] = target: T2, α9/α10 combination (Homo sapiens, UniProt Q9GZZ6+Q9UGM1, N442S); experiment: Two electrode voltage clamp recording in Xenopus oocytes injected with α9 plus α10; format: cell-based
T2 construct: expressed in transfected cells; host or cells: Xenopus laevis oocytes injected with cRNA made from cDNAs in pSP64T.GL+
Description: as §1, §2, §3, §4

[3] = read-out: IC50 for inhibition of ACh-evoked response

T1 sequence (Q9UGM1 23-479 N442S): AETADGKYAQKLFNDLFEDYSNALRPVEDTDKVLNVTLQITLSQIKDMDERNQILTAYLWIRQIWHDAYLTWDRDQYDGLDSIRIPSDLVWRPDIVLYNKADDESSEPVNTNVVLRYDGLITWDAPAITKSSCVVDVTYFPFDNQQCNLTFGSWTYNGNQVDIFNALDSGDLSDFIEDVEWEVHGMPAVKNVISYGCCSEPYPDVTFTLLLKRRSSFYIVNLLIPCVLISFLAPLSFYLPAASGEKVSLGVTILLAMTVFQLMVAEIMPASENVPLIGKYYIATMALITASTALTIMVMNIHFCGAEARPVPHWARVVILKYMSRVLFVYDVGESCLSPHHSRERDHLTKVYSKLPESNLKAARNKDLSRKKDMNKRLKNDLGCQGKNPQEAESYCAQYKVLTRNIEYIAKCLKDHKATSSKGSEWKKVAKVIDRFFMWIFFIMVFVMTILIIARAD
T2 sequence (Q9GZZ6 25-450): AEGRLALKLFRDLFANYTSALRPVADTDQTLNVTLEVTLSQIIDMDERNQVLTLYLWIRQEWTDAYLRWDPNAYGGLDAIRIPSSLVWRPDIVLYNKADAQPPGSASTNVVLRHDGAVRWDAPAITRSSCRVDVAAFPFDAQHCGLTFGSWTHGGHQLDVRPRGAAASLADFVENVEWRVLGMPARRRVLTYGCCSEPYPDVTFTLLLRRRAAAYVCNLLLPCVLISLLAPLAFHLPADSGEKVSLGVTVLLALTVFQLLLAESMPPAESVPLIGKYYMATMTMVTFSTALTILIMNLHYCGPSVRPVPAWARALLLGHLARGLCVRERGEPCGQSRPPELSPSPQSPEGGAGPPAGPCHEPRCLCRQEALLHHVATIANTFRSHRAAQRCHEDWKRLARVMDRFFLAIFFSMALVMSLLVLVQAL
T2 sequence (Q9UGM1 23-479 N442S): as the sequence (Q9UGM1 23-479 N442S) above

Compound	proportional increase in area-under-the curve for normalised responses ([1]; 30 s ACh application compared to 10 s application, α9 alone, N=2)	proportional increase in area-under-the curve for normalised responses ([2]; 30 s ACh application compared to 10 s application, α9/α10, N=2)	Hill coefficient of inhibition curve [1]	IC50 [1, 3]	Hill coefficient of inhibition curve [2]	IC50 [2, 3]
CC(=O)OCC[N+](C)(C)C [ACh, acetylcholine]	82%	44%				
α-bungarotoxin [α-Btx]			−1.25	2.7 nM	−0.89	3.7 nM
